Here are results for 17 compounds from PubChem BioAssay AID192 (DTP/NCI, 2004).

“And” between values parts separate entries of the source, which are not always exact repeats. Identical values can stand only once. Toxic doses and inconclusive results are not listed.

This assay has as its system BDF1 mice, B16 melanoma ip, median survival T/C. The experiment in a line: NCI In Vivo Anticancer Drug Screen. Data for tumor model B16 Melanoma (intraperitoneal) in B6D2F1 (BDF1) mice. The following applies: endpoint: median survival time, higher = longer survival. The method, boiled down:
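Survival or tumor size is measured after treatment of tumor-bearing mice and normalised to the vehicle-treated control group.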

[1] abbreviates: dose: 25.0 mg/kg/injection, schedule: Q01DX009 (ip), vehicle: saline.
[2] abbreviates: dose: 50.0 mg/kg/injection, schedule: Q04DX003 (ip), vehicle: saline with Tween-80.
[3] abbreviates: dose: 100.0 mg/kg/injection, schedule: Q04DX003 (ip), vehicle: saline with Tween-80.
Where [4] appears, read: dose: 25.0 mg/kg/injection, schedule: Q01DX009 (ip), vehicle: Klucel (hydroxypropylcellulose) (HPC).
The mark [5] stands for this setting: dose: 50.0 mg/kg/injection, schedule: Q01DX009 (ip), vehicle: Klucel (hydroxypropylcellulose) (HPC).
Setting [6] is: dose: 25.0 mg/kg/injection, schedule: Q01DX009 (ip), vehicle: saline with Tween-80.
The mark [7] stands for this setting: dose: 200.0 mg/kg/injection, schedule: Q01DX009 (ip), vehicle: Klucel (hydroxypropylcellulose) (HPC).
[8] abbreviates: dose: 12.5 mg/kg/injection, schedule: Q04DX003 (ip), vehicle: saline with Tween-80.
[9] abbreviates: dose: 25.0 mg/kg/injection, schedule: Q04DX003 (ip), vehicle: saline with Tween-80.

`NC(=O)c1[nH]nc(C2OC(CO)C(O)C2O)c1O` (centres undefined): the T/C was 100 % of control (dose: 0.08 mg/kg/injection, schedule: Q01DX009 (ip), vehicle: saline); 110 % of control (dose: 0.12 mg/kg/injection, schedule: Q01DX009 (ip), vehicle: saline); 111 % of control (dose: 0.16 mg/kg/injection, schedule: Q01DX009 (ip), vehicle: saline); 111 % of control (dose: 0.31 mg/kg/injection, schedule: Q01DX009 (ip), vehicle: saline); 115 % of control (dose: 0.5 mg/kg/injection, schedule: Q01DX009 (ip), vehicle: saline); 111 % of control (dose: 0.62 mg/kg/injection, schedule: Q01DX009 (ip), vehicle: saline). Further, the T/C runs as follows: (dose: 0.67 mg/kg/injection, schedule: Q01DX009 (ip), vehicle: saline) 123 % of control; (dose: 1.25 mg/kg/injection, schedule: Q01DX009 (ip), vehicle: saline) 94 % of control; (dose: 2.16 mg/kg/injection, schedule: Q01DX004 (ip), vehicle: saline) 113 % of control; (dose: 3.6 mg/kg/injection, schedule: Q01DX004 (ip), vehicle: saline) 112 % of control; (dose: 6.0 mg/kg/injection, schedule: Q01DX004 (ip), vehicle: saline) 109 % of control; (dose: 10.0 mg/kg/injection, schedule: Q01DX004 (ip), vehicle: saline) 44 % of control.

With `NCCN1CCc2ccccc2C1`, the T/C reads like this: (dose: 6.25 mg/kg/injection, schedule: Q04DX003 (ip), vehicle: saline) 113 % of control; (dose: 12.5 mg/kg/injection, schedule: Q04DX003 (ip), vehicle: saline) 110 % of control; (dose: 16.5 mg/kg/injection, schedule: Q04DX003 (ip), vehicle: saline) 112 % of control; (dose: 25.0 mg/kg/injection, schedule: Q04DX003 (ip), vehicle: saline) 112 % of control and 115 % of control; (dose: 37.5 mg/kg/injection, schedule: Q04DX003 (ip), vehicle: saline) 110 % of control.

Regarding `CCC1CC(O)c2c(O)c3c(c(O)c2C1O)C(=O)c1cccc(O)c1C3=O` (centres undefined) (tested in a mixture with another compound), the T/C runs as follows: (dose: 0.01 mg/kg/injection, schedule: Q01DX009 (ip), vehicle: saline) 95 % of control; (dose: 0.03 mg/kg/injection, schedule: Q01DX009 (ip), vehicle: saline) 86 % of control; (dose: 0.06 mg/kg/injection, schedule: Q04DX003 (ip), vehicle: saline) 102 % of control; (dose: 0.12 mg/kg/injection, schedule: Q04DX003 (ip), vehicle: saline) 109 % of control; (dose: 15.0 micrograms/kg/injection, schedule: Q01DX009 (ip), vehicle: saline) 119 % of control.

Take `c1ccc2cc3c(cc2c1)Cn1c-3nc2ccccc21`: the T/C (dose: 178.0 mg/kg/injection, schedule: Q01DX009 (ip), vehicle: saline with Tween-80) was 101 % of control; the T/C (dose: 200.0 mg/kg/injection, schedule: Q01DX009 (ip), vehicle: saline) is 124 % of control; the T/C (dose: 266.0 mg/kg/injection, schedule: Q01DX009 (ip), vehicle: saline with Tween-80) was 100 % of control; the T/C (dose: 400.0 mg/kg/injection, schedule: Q01DX009 (ip), vehicle: saline with Tween-80) is 90 % of control; the T/C (dose: 400.0 mg/kg/injection, schedule: Q01DX009 (ip), vehicle: saline) is 110 % of control.

Turning to `C[N+](C)(C)CCCC1C2CCC(C2)C1C[N+](C)(C)C` (centres undefined), the T/C is, setting by setting: (dose: 12.5 mg/kg/injection, schedule: Q01DX009 (ip), vehicle: saline) 110 % of control; under setting [1], 110 % of control.

Regarding `CCCCNCCN(CC)CC`, the T/C was 100 % of control under setting [1]; 100 % of control (dose: 50.0 mg/kg/injection, schedule: Q01DX009 (ip), vehicle: saline); 98 % of control (dose: 100.0 mg/kg/injection, schedule: Q01DX009 (ip), vehicle: saline).

With `Nc1ccc(S(=O)(=O)CCCl)cc1`, the T/C (dose: 12.5 mg/kg/injection, schedule: Q04DX003 (ip), vehicle: Klucel (hydroxypropylcellulose) (HPC)) is 100 % of control; the T/C (dose: 25.0 mg/kg/injection, schedule: Q04DX003 (ip), vehicle: Klucel (hydroxypropylcellulose) (HPC)) is 105 % of control; the T/C (dose: 200.0 mg/kg/injection, schedule: Q04DX003 (ip), vehicle: Klucel (hydroxypropylcellulose) (HPC)) was 99 % of control.

On to `O=C(O)C1(Cl)CC2C=CC1C2` (centres undefined), for which the T/C is 105 % of control under setting [2]; 97 % of control under setting [3]; 88 % of control (dose: 200.0 mg/kg/injection, schedule: Q04DX003 (ip), vehicle: saline with Tween-80).

In the case of `CCCC(OC(C)=O)C(Cl)(Cl)Cl` (centres undefined), the T/C reads like this: under setting [4], 90 % of control; under setting [5], 100 % of control.

As for `Cc1ccc(C(=O)NC2C(=O)NC(C(C)C)C(=O)N3CCCC3C(=O)N(C)CC(=O)N(C)C(C(C)C)C(=O)OC2C)c2c1Oc1c(c(C(=O)NC3C(=O)NC(C(C)C)C(=O)N4CCCC4C(=O)N(C)CC(=O)N(C)C(C(C)C)C(=O)OC3C)c3nc(CF)c(=O)oc3c1C)N2` (centres undefined), the T/C runs as follows: (dose: 0.13 mg/kg/injection, schedule: Q04DX003 (ip), vehicle: saline + alcohol) 154 % of control; (dose: 0.25 mg/kg/injection, schedule: Q04DX003 (ip), vehicle: saline + alcohol) 164 % of control; (dose: 31.25 micrograms/kg/injection, schedule: Q04DX003 (ip), vehicle: water) 112 % of control; (dose: 125.0 micrograms/kg/injection, schedule: Q04DX003 (ip), vehicle: water) 180 % of control; (dose: 250.0 micrograms/kg/injection, schedule: Q04DX003 (ip), vehicle: water) 170 % of control; (dose: 500.0 micrograms/kg/injection, schedule: Q04DX003 (ip), vehicle: water) 175 % of control.

Turning to `COc1cc(-c2ccc(Nc3ccccc3C(=O)O)c(OC)c2)ccc1N`, the T/C was 105 % of control under setting [6] and 104 % of control (dose: 50.0 mg/kg/injection, schedule: Q01DX009 (ip), vehicle: saline with Tween-80).

Turning to `CCOc1ccc([NH-])c([NH-])c1.[Cl][Pt+2][Cl]`, the T/C runs as follows: (dose: 2.5 mg/kg/injection, schedule: Q01DX009 (ip), vehicle: distilled water + Tween-80) 115 % of control; (dose: 5.0 mg/kg/injection, schedule: Q01DX009 (ip), vehicle: distilled water + Tween-80) 115 % of control; (dose: 10.0 mg/kg/injection, schedule: Q01DX009 (ip), vehicle: distilled water + Tween-80) 117 % of control; (dose: 20.0 mg/kg/injection, schedule: Q01DX009 (ip), vehicle: distilled water + Tween-80) 102 % of control.

Take `CCO/C=C1\SC(=S)N(c2ccc(OCC)cc2)C1=O`: the T/C under setting [7] was 92 % of control.

`O=S(=O)(O)c1ccc2c(O)cc(S(=O)(=O)O)cc2c1`: the T/C was 100 % of control (dose: 100.0 mg/kg/injection, schedule: Q04DX003 (ip), vehicle: saline); 105 % of control (dose: 200.0 mg/kg/injection, schedule: Q04DX003 (ip), vehicle: saline); 108 % of control (dose: 400.0 mg/kg/injection, schedule: Q04DX003 (ip), vehicle: saline).

Turning to `C[N+](C)(C)C.N=C=O.N=C=O.N=C=O.N=C=O.[Co+2]`, the T/C is, setting by setting: under setting [8], 97 % of control; under setting [9], 90 % of control; under setting [2], 92 % of control.

Consider `CCOP(=O)(O)CC(=O)NC(CC(=O)O)C(=O)O` (centres undefined), for which the T/C reads like this: (dose: 12.5 mg/kg/injection, schedule: Q01DX009 (ip), vehicle: Klucel (hydroxypropylcellulose) (HPC)) 97 % of control; under setting [4], 101 % of control; under setting [5], 92 % of control; (dose: 100.0 mg/kg/injection, schedule: Q01DX009 (ip), vehicle: Klucel (hydroxypropylcellulose) (HPC)) 92 % of control; under setting [7], 97 % of control; (dose: 400.0 mg/kg/injection, schedule: Q01DX009 (ip), vehicle: Klucel (hydroxypropylcellulose) (HPC)) 94 % of control.

For `O=C(Nc1ccc(C(=O)O)cc1)Oc1ccc(N(CCCl)CCCl)cc1`, the T/C is 109 % of control (dose: 3.13 mg/kg/injection, schedule: Q04DX003 (ip), vehicle: saline with Tween-80); 109 % of control (dose: 6.25 mg/kg/injection, schedule: Q04DX003 (ip), vehicle: saline with Tween-80); 165 % of control (dose: 12.5 mg/kg/injection, schedule: Q01DX009 (ip), vehicle: saline with Tween-80); 123 % of control under setting [8]; 154 % of control under setting [4]; 110 % of control under setting [6]. Further, the T/C is 151 % of control under setting [9], 164 % of control under setting [2] and 205 % of control under setting [3].
